#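 Tested at 5 concentrations; 48 h exposure; 96-well plates; endpoints linearly interpolated, else capped at highest concentration. The concentration for 50% growth inhibition is given as GI50.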 Calls of active or inactive are those of the source. Cut-off read from the data, not from the text of the source: active = GI50 up to about 1.1 µM and inactive = higher.
# Legend:
# Test in all cases: NCI-60 cell line screen, 48 h
# [1] = system: SNB-19
# [2] = system: A498
# [3] = system: MCF7
# [4] = system: NCI-H23
# [5] = system: RPMI-8226
# [6] = system: SK-MEL-2
# [7] = system: NCI-H522
# [8] = system: SNB-75
# [9] = system: NCI-H460
# [10] = system: NCI/ADR-RES
# [11] = system: 786-0
# [12] = system: MDA-MB-435
# [13] = system: M14
# [14] = system: HCT-116
# [15] = system: Malme-3M
# [16] = system: PC-3
# [17] = system: LOX IMVI
# [18] = system: UACC-257
# [19] = system: K562
# [20] = system: HOP-92
SMILES,GI50 [1],GI50 [2],GI50 [3],GI50 [4],GI50 [5],GI50 [6],GI50 [7],GI50 [8],GI50 [9],GI50 [10],GI50 [11],GI50 [12],GI50 [13],GI50 [14],GI50 [15],GI50 [16],GI50 [17],GI50 [18],GI50 [19],GI50 [20]
N#Cc1nnn(C2CCCCC2)c1O,> 100 µM (inactive),> 100 µM (inactive),> 100 µM (inactive),> 100 µM (inactive),10 µM (inactive),> 100 µM (inactive),> 100 µM (inactive),> 100 µM (inactive),> 100 µM (inactive),> 100 µM (inactive),> 100 µM (inactive),> 100 µM (inactive),> 100 µM (inactive),> 100 µM (inactive),> 100 µM (inactive),> 100 µM (inactive),> 100 µM (inactive),> 100 µM (inactive),,
Cc1c(C#N)c(=N)oc2ccccc12,> 100 µM (inactive),> 100 µM (inactive),> 100 µM (inactive),> 100 µM (inactive),> 100 µM (inactive),84.1 µM (inactive),,57.5 µM (inactive),> 100 µM (inactive),> 100 µM (inactive),> 100 µM (inactive),> 100 µM (inactive),> 100 µM (inactive),> 100 µM (inactive),> 100 µM (inactive),> 100 µM (inactive),> 100 µM (inactive),> 100 µM (inactive),> 100 µM (inactive),> 100 µM (inactive)
COc1cc(C(=O)Oc2c(C#N)sc3c2c(=O)n(-c2ccccc2)c(=S)n3-c2ccccc2)cc(OC)c1OC,11.6 µM (inactive),4.1 µM (inactive),22.9 µM (inactive),18.1 µM (inactive),9.08 µM (inactive),,0.361 µM (active),14.4 µM (inactive),21.9 µM (inactive),16.6 µM (inactive),15.2 µM (inactive),15.1 µM (inactive),12.8 µM (inactive),16.3 µM (inactive),9.14 µM (inactive),17.1 µM (inactive),19.9 µM (inactive),35.2 µM (inactive),23.5 µM (inactive),14.6 µM (inactive)
CC(C)(C)C(=O)Nc1c(C=O)ccc2[nH]cnc12,> 100 µM (inactive),> 100 µM (inactive),60.1 µM (inactive),> 100 µM (inactive),89.9 µM (inactive),> 100 µM (inactive),> 100 µM (inactive),> 100 µM (inactive),> 100 µM (inactive),> 100 µM (inactive),> 100 µM (inactive),> 100 µM (inactive),> 100 µM (inactive),> 100 µM (inactive),,74.3 µM (inactive),62.8 µM (inactive),91.4 µM (inactive),42.8 µM (inactive),> 100 µM (inactive)
C1C2CC3CC1CC(Nc1nc(NC45CC6CC(CC(C6)C4)C5)nc(NC45CC6CC(CC(C6)C4)C5)n1)(C2)C3,43.5 µM (inactive),> 51.4 µM (inactive),55.1 µM (inactive),> 43.9 µM (inactive),24.5 µM (inactive),> 70 µM (inactive),,16.9 µM (inactive),66.4 µM (inactive),9.31 µM (inactive),> 20.8 µM (inactive),> 56.4 µM (inactive),44 µM (inactive),> 51.9 µM (inactive),> 100 µM (inactive),> 67.3 µM (inactive),11.1 µM (inactive),> 28.8 µM (inactive),> 62.5 µM (inactive),> 100 µM (inactive)
CN(C)c1ccc(/C=C/c2nc3ccccc3s2)cc1,> 100 µM (inactive),> 100 µM (inactive),> 100 µM (inactive),> 100 µM (inactive),> 100 µM (inactive),> 100 µM (inactive),> 100 µM (inactive),,> 100 µM (inactive),> 100 µM (inactive),> 100 µM (inactive),45.1 µM (inactive),> 100 µM (inactive),> 100 µM (inactive),> 100 µM (inactive),> 100 µM (inactive),> 100 µM (inactive),> 100 µM (inactive),> 100 µM (inactive),> 100 µM (inactive)
C=C(Cl)[C@](Cl)(CBr)CC[C@@H](Br)C(C)(C)Cl [HALOMON],1.46 µM (inactive),1.97 µM (inactive),0.822 µM (active),11.4 µM (inactive),0.0607 µM (active),,15.5 µM (inactive),0.449 µM (active),0.955 µM (active),1.69 µM (inactive),0.147 µM (active),1.59 µM (inactive),15.7 µM (inactive),0.392 µM (active),11.5 µM (inactive),0.319 µM (active),17.7 µM (inactive),1.4 µM (inactive),0.916 µM (active),0.378 µM (active)
